Measurements from patent US8357717B2, “Spiro group-containing amide compounds having bradykinin 1 receptor (B1R) activity” (Gruenenthal GmbH, priority 2009, dated 2013).

Columns and labels:
[1] = target: T1, B1R receptor of the rat (rB1R) (Rattus norvegicus, UniProt P97583); assay: FLIPR Ca2+ functional study on bradykinin receptor 1, rB1R cells (CHO K1); format: cell-based; details: 10 μM test substance; CHO K1 cells with rat B1R; agonist Des-Arg9-bradykinin at EC80; read-out: B1R antagonism, rat [10 μM] % inhibition
T1 construct: expressed in transfected cells; host or cells: CHO K1 cells, stably transfected
T1 sequence (P97583 1-337): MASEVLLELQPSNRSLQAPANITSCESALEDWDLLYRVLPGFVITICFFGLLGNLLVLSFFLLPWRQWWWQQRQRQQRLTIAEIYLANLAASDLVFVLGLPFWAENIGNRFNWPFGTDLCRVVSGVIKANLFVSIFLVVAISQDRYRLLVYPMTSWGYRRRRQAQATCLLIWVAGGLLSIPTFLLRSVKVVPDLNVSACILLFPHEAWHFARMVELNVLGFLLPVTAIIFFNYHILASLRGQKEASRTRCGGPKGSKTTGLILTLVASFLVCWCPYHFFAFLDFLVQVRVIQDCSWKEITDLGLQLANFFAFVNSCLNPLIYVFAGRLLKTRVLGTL
Description: (§1) The agonistic or antagonistic activity of substances can be quantified on the bradykinin receptor 1 (B1R) of the species human and rat using ectopically expressing cell lines (CHO K1 cells) and with the aid of a Ca^2+-sensitive dye (Fluo-4) using a fluorescent imaging plate reader (FLIPR). The indication in % activation is based on the Ca^2+ signal after addition of Lys-Des-Arg^9-bradykinin (0.5 nM) or Des-Arg^9-bradykinin (100 nM). Antagonists lead to suppression of the Ca^2+ influx after the addition of the agonist. % Inhibition compared with the maximum achievable inhibition is indicated.
(§2) The agonistic or antagonistic activity of substances can be determined on the bradykinin receptor 1 (B1R) of the species human and rat using the following assay. According to this assay, the Ca^2+ influx through the channel is quantified with the aid of a Ca^2+-sensitive dye (Fluo-4 type, Molecular Probes Europe BV, Leiden, Netherlands) using a Fluorescent Imaging Plate Reader (FLIPR, Molecular Devices, Sunnyvale, USA).
(§3) Chinese hamster ovary cells (CHO K1 cells) which have been stably transfected with the human B1R gene (hB1R cells) or with the B1R gene of the rat (rB1R cells) are used. For functional studies, the cells are plated out on black 96-well plates having a clear base (BD Biosciences, Heidelberg, Germany or Greiner, Frickenhausen, Germany) in a density of 20,000-35,000 cells/well. The cells are left overnight at 37° C. and with 5% CO2 in culture medium (hB1R cells: Nutrient Mixture Ham's F12, Gibco Invitrogen GmbH, Karlsruhe, Germany or DMEM, Sigma-Aldrich, Taufkirchen, Germany; rB1R cells: D-MEM/F12, Gibco Invitrogen GmbH, Karlsruhe, Germany), with 10 vol. % FBS (fetal bovine serum, Gibco Invitrogen GmbH, Karlsruhe, Germany or PAN Biotech GmbH, Aidenbach, Germany). On the following day, the cells are loaded for 60 minutes at 37° C. with 2.13 μM Fluo-4 (Molecular Probes Europe BV, Leiden, Netherlands) in HBSS buffer (Hank's buffered saline solution, Gibco Invitrogen GmbH, Karlsruhe, Germany) […] (Sigma-Aldrich, Taufkirchen, Germany) and 10 mM HEPES (Sigma-Aldrich, Taufkirchen, Germany). The plates are then washed twice with HBSS buffer, and HBSS buffer additionally containing 0.1% BSA (bovine serum albumin; Sigma-Aldrich, Taufkirchen, Germany), 5.6 mM glucose and 0.05% gelatin (Merck KGaA, Darmstadt, Germany) is added to the plates. After incubation for a further 20 minutes at room temperature, the plates are inserted into the FLIPR for Ca^2+ measurement. Alternatively, washing is carried out with buffer A (15 mM HEPES, 80 mM NaCl, 5 mM KCl, 1.2 mM CaCl2, 0.7 mM MgSO4, 2 g/l glucose, 2.5 mM probenecid) followed by loading with buffer A with added 2.5 μM Fluo-4 and 0.025% Pluronic F127 (Sigma-Aldrich, Taufkirchen, Germany). The cells are then washed twice with buffer A and incubated for 30 minutes at room temperature with buffer A additionally containing 0.05% BSA and 0.05% gelatin and are then inserted into the FLIPR for Ca^2+ measurement. The Ca^2+-dependent fluorescence is measured before and after the addition of substances (λex=488 nm, λem=540 nm). Quantification is carried out by measuring the highest fluorescence intensity (FC, fluorescence counts) over time.
(§4) The FLIPR protocol consists of two substance additions. Test substances (10 μM) are first pipetted onto the cells and the Ca^2+ influx is compared with the control (hB1R: Lys-Des-Arg^9-bradykinin >=50 nM; rB1R: Des-Arg^9-bradykinin 10 μM). This gives the activation in %, based on the Ca^2+ signal after addition of Lys-Des-Arg^9-bradykinin (>=50 nM) or Des-Arg^9-bradykinin (10 μM). After 10-20 minutes' incubation, Lys-Des-Arg^9-bradykinin (hB1R) or Des-Arg^9-bradykinin (rB1R) is applied in the concentration of the EC80, and the influx of Ca^2+ is likewise determined. Antagonists lead to suppression of the Ca^2+ influx. The % inhibition compared with the maximum achievable inhibition is calculated. […]

[2] = target: T2, human B1R receptor (hB1R) (Homo sapiens, UniProt P46663); assay: FLIPR Ca2+ functional study on bradykinin receptor 1, hB1R cells (CHO K1); format: cell-based; details: CHO-K1, 10 μM test substance; CHO K1 cells with human B1R; agonist Lys-Des-Arg9-bradykinin at EC80; read-out: B1R antagonism, human [10 μM] % inhibition
T2 construct: expressed in transfected cells; host or cells: CHO K1 cells, stably transfected
T2 sequence (P46663 1-353): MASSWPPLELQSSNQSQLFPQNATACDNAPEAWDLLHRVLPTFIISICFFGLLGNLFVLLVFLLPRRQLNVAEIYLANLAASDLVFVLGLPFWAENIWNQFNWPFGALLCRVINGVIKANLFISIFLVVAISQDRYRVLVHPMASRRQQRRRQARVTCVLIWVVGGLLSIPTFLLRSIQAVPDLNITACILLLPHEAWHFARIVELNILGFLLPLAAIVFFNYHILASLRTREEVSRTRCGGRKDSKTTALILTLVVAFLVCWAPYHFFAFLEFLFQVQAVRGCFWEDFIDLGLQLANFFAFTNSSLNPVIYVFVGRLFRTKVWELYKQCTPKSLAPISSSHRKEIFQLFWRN
Description: as §1, §2, §3, §4

Structure (SMILES): COc1cc(C)c(S(=O)(=O)N2CCCc3ccc(CC(=O)N4CCC5(CC4)CCN(C4CCC4)C5)cc32)c(C)c1 [Compound G-10, 1-(2-Cyclobutyl-2,8-diazaspiro[4.5]decan-8-yl)-2-(1-(4-methoxy-2,6-dimethylphenylsulfonyl)-1,2,3,4-tetrahydroquinolin-7-yl)ethanone]
- inhibition at 10 µM [1]: 80%
- inhibition at 10 µM [2]: 97%

Structure (SMILES): COc1cc(C)c(S(=O)(=O)N2CCCc3ccc(CC(=O)N4CCC5(CCN(c6ccncc6)CC5)C4)cc32)c(C)c1 [Compound G-11, 2-(1-(4-Methoxy-2,6-dimethylphenylsulfonyl)-1,2,3,4-tetrahydroquinolin-7-yl)-1-(8-(pyridin-4-yl)-2,8-diazaspiro[4.5]decan-2-yl)ethanone]
- inhibition at 10 µM [1]: 99%
- inhibition at 10 µM [2]: 99%

Structure (SMILES): COc1cc(C)c(S(=O)(=O)N2CCCc3ccc(CC(=O)N4CCC5(CCN(c6ccncc6)C5)C4)cc32)c(C)c1 (stereo not drawn) [Compound G-12, 2-(1-(4-Methoxy-2,6-dimethylphenylsulfonyl)-1,2,3,4-tetrahydroquinolin-7-yl)-1-(7-(pyridin-4-yl)-2,7-diazaspiro[4.4]nonan-2-yl)ethanone]
- inhibition at 10 µM [1]: 102%
- inhibition at 10 µM [2]: 100%

Structure (SMILES): O=C(c1ccccc1Cl)N1CCc2onc(C(=O)N3CCC4(CC3)CCN(c3ccncc3)CC4)c2C1 [Compound G-13, (5-(2-Chlorobenzoyl)-4,5,6,7-tetrahydroisoxazolo[4,5-c]pyridin-3-yl)(9-(pyridin-4-yl)-3,9-diazaspiro[5.5]undecan-3-yl)methanone]
- inhibition at 10 µM [1]: 94%
- inhibition at 10 µM [2]: 100%

Structure (SMILES): COc1cc(C)c(S(=O)(=O)N2CCc3sc(C(=O)N4CCC5(CC4)CCN(c4ccncc4)CC5)cc3C2)c(C)c1 [Compound G-14, (5-(4-Methoxy-2,6-dimethylphenylsulfonyl)-4,5,6,7-tetrahydrothieno[3,2-c]pyridin-2-yl)(9-(pyridin-4-yl)-3,9-diazaspiro[5.5]undecan-3-yl)methanone]
- inhibition at 10 µM [1]: 97%
- inhibition at 10 µM [2]: 97%

Structure (SMILES): O=C(c1cc2c(s1)CCN(C(=O)c1ccccc1Cl)C2)N1CCC2(CC1)CCN(c1ccncc1)CC2 [Compound G-15, (5-(2-Chlorobenzoyl)-4,5,6,7-tetrahydrothieno[3,2-c]pyridin-2-yl)(9-(pyridin-4-yl)-3,9-diazaspiro[5.5]undecan-3-yl)methanone]
- inhibition at 10 µM [1]: 81%
- inhibition at 10 µM [2]: 66%

Structure (SMILES): O=C(Cc1ccc2c(c1)N(S(=O)(=O)c1ccccc1C(F)(F)F)CCC2)N1CCC2(CC1)CCN(c1ccncc1)CC2 [Compound G-16, 1-(9-(Pyridin-4-yl)-3,9-diazaspiro[5.5]undecan-3-yl)-2-(1-(2-(trifluoromethyl)phenylsulfonyl)-1,2,3,4-tetrahydroquinolin-7-yl)ethanone]
- inhibition at 10 µM [1]: 100%
- inhibition at 10 µM [2]: 98%

Structure (SMILES): O=C(Cc1ccc2c(c1)N(S(=O)(=O)c1cccc3ccccc13)CCC2)N1CCC2(CC1)CCN(c1ccncc1)CC2 [Compound G-17, 2-(1-(Naphthalin-1-ylsulfonyl)-1,2,3,4-tetrahydroquinolin-7-yl)-1-(9-(pyridin-4-yl)-3,9-diazaspiro[5.5]undecan-3-yl)ethanone]
- inhibition at 10 µM [1]: 89%
- inhibition at 10 µM [2]: 97%

Structure (SMILES): Cc1cccc(Cl)c1S(=O)(=O)N1CCCc2ccc(CC(=O)N3CCC4(CC3)CCN(c3ccncc3)CC4)cc21 [Compound G-18, 2-(1-(2-Chloro-6-methylphenylsulfonyl)-1,2,3,4-tetrahydroquinolin-7-yl)-1-(9-(pyridin-4-yl)-3,9-diazaspiro[5.5]undecan-3-yl)ethanone]
- inhibition at 10 µM [1]: 98%
- inhibition at 10 µM [2]: 97%

Structure (SMILES): COc1cc(C)c(S(=O)(=O)N2CCOc3ccc(CC(=O)N4CCC5(CC4)CCN(c4ccncc4)CC5)cc32)c(C)c1 [Compound G-19, 2-(4-(4-Methoxy-2,6-dimethylphenylsulfonyl)-3,4-dihydro-2H-benzo[b][1,4]oxazin-6-yl)-1-(9-(pyridin-4-yl)-3,9-diazaspiro[5.5]undecan-3-yl)ethanone]
- inhibition at 10 µM [1]: 100%
- inhibition at 10 µM [2]: 100%

Structure (SMILES): COc1cc(C)c(S(=O)(=O)N2CCc3ccc(CC(=O)N4CCC5(CC4)CCN(c4ccncc4)CC5)cc32)c(C)c1 [Compound G-20, 2-(1-(4-Methoxy-2,6-dimethylphenylsulfonyl)indolin-6-yl)-1-(9-(pyridin-4-yl)-3,9-diazaspiro[5.5]undecan-3-yl)ethanone]
- inhibition at 10 µM [1]: 102%
- inhibition at 10 µM [2]: 100%

Structure (SMILES): O=C(c1ccc2c(c1)N(C(=O)c1ccccc1Cl)CCC2)N1CCC2(CC1)CCN(c1ccncc1)CC2 [Compound G-21, (1-(2-Chlorobenzoyl)-1,2,3,4-tetrahydroquinolin-7-yl)(9-(pyridin-4-yl)-3,9-diazaspiro[5.5]undecan-3-yl)methanone]
- inhibition at 10 µM [1]: 101%
- inhibition at 10 µM [2]: 95%

Structure (SMILES): COc1cc(C)c(S(=O)(=O)N2CCCc3ccc(C(=O)N4CCC5(CC4)CCN(c4ccncc4)CC5)cc32)c(C)c1 [Compound G-24, (1-(4-Methoxy-2,6-dimethylphenylsulfonyl)-1,2,3,4-tetrahydroquinolin-7-yl)(9-(pyridin-4-yl)-3,9-diazaspiro[5.5]undecan-3-yl)methanone]
- inhibition at 10 µM [1]: 100%
- inhibition at 10 µM [2]: 99%

Structure (SMILES): COc1cc(C)c(S(=O)(=O)N2CCCc3ccc(CC(=O)N4CCC5(CC4)CCN(c4ccncc4)CC5)cc32)c(C)c1 [Compound G-25, 2-(1-(4-Methoxy-2,6-dimethylphenylsulfonyl)-1,2,3,4-tetrahydroquinolin-7-yl)-1-(9-(pyridin-4-yl)-3,9-diazaspiro[5.5]undecan-3-yl)ethanone]
- inhibition at 10 µM [1]: 98%
- inhibition at 10 µM [2]: 100%

Structure (SMILES): COc1cc(C)c(S(=O)(=O)N2CCc3onc(C(=O)N4CCC5(CC4)CCN(c4ccncc4)CC5)c3C2)c(C)c1 [Compound G-26, (5-(4-Methoxy-2,6-dimethylphenylsulfonyl)-4,5,6,7-tetrahydroisoxazolo[4,5-c]pyridin-3-yl)(9-(pyridin-4-yl)-3,9-diazaspiro[5.5]undecan-3-yl)methanone]
- inhibition at 10 µM [1]: 95%
- inhibition at 10 µM [2]: 99%
